# According to US12187701B2, “Taire family kinase inhibitors and uses thereof” (Dana-Farber Cancer Institute, Inc., priority 2018, dated 2025):
# Like-named read-outs stand apart in the source and are kept apart here.
# Experiments:
# [1] = molecular target: CDK16/CycY (Homo sapiens (Human), UniProt Q00536); assay: Lanthascreen Eu kinase binding assay for CDK16/CycY
# Experimental: Lanthascreen Eu kinase binding assays were conducted for CDK16/CycY at Life Technologies.
# [2] = molecular target: CDK2/CycA (Homo sapiens (Human), UniProt P24941); assay: Z'LYTE kinase assay for CDK2/CycA at Km ATP; assay type: biochemical
# [3] = system: HCT116 cells; assay: Antiproliferation assay, Cell Titer Glo, 72 hours; assay type: cell-based
# Experimental: HCT116 cells were plated in 384-well plates at 750 cells/well in 50 ul fresh media (McCoy's 5A+10% FBS+1% Penn/Strep) and treated with 0.1 μl candidate compounds in four-fold dilution series using the Janus pinner. Cells were incubated with compounds for 72 hours in 37° C. 5% CO2. Anti-proliferative effects of these compounds were assessed 72 hours after compound addition using Cell Titer Glo (Promega cat #G7571) as described in product manual by luminescence measurements using an Envision platereader. All proliferation assays were performed in biological quadruplicate. IC50 values were determined using a non-linear regression curve fit in GraphPad Prism 6.
# [4] = molecular target: Cdk14/CycY (Homo sapiens (Human), UniProt O94921); assay: Lanthascreen Eu kinase binding assay for Cdk14/CycY with 30 minute pre-incubation; conditions: 30 minute pre-incubation of kinase with compound; read-out: IC50 CDK14 binding by Lanthascreen
# Experimental: Lanthascreen Eu kinase binding assays were conducted for Cdk14/CycY largely as performed in the commercial assay service by Life Technologies, but included a 30 minute pre-incubation step of the kinase with candidate compounds to facilitate covalent bond formation.
# [5] = read-out: IC50 CDK16 Lanthascreen binding
# [6] = read-out: IC50 CDK2 Z′LYTE kinase assay
# Cdk14/CycY, sequence (O94921 whole entry): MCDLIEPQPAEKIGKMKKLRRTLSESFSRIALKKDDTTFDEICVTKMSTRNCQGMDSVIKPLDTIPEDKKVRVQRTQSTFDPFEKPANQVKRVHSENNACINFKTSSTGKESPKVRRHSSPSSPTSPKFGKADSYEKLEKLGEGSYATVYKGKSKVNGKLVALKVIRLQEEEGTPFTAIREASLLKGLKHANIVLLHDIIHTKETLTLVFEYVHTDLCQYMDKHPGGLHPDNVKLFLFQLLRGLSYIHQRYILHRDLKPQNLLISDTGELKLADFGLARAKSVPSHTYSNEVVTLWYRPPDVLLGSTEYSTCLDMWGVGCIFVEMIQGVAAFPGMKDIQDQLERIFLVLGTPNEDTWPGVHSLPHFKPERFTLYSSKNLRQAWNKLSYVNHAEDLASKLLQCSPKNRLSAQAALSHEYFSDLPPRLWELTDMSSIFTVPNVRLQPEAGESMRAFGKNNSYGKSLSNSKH
# Cdk14/CycY, sequence (Q8ND76 whole entry partner): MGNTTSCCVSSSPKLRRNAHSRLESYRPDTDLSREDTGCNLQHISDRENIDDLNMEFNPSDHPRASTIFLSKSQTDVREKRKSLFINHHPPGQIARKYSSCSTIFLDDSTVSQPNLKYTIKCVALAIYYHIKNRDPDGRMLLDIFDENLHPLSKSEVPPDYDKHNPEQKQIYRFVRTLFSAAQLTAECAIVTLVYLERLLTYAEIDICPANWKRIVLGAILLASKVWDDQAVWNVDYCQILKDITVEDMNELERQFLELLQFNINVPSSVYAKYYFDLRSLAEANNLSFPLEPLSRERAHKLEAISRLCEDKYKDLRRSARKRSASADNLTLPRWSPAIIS
# CDK16/CycY, sequence (Q00536 whole entry): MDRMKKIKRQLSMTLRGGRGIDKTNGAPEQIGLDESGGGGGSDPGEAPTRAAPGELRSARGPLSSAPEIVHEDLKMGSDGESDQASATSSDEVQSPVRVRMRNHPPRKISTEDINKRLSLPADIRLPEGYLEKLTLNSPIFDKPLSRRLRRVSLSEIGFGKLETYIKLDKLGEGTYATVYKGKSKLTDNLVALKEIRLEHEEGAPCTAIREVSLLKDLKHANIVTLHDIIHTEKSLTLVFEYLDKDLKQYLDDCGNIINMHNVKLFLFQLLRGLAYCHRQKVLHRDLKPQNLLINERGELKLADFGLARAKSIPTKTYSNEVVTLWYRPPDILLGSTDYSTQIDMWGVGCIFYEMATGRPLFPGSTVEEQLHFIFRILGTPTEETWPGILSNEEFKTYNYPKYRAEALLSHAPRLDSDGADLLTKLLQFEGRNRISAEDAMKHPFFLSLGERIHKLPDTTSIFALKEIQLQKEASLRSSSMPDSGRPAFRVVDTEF
# CDK16/CycY, sequence (Q8ND76 whole entry partner): as the sequence (Q8ND76 whole entry partner) above
Compound,"IC50 [1, 5] [nM]","IC50 [2, 6] [nM]",IC50 [3] [nM],"IC50 ([3]; Homo sapiens, HCT-116, 72 h) [nM]",IC50 [4] [nM],IC50 ([1]; read-out: CDK16 IC50) [nM],IC50 ([2]; read-out: CDK2 IC50) [nM]
"COc1cccc(Cl)c1C(=O)Nc1c[nH]nc1C(=O)NC1CCN(S(=O)(=O)c2cccc(NC(=O)/C=C/CN(C)C)c2)CC1 [FMF-04-107-2, (E)-4-(2-chloro-6-methoxybenzamido)-N-(1-((3-(4-(dimethylamino)but-2-enamido)phenyl)sulfonyl)piperidin-4-yl)-1H-pyrazole-3-carboxamide]",2.3,4.5,524,524,,2.3,4.5
"Cc1[nH]nc(C(=O)NC2CCN(S(=O)(=O)c3cccc(NC(=O)/C=C/CN(C)C)c3)CC2)c1NC(=O)c1c(Cl)cccc1Cl [FMF-04-181-2, (E)-4-(2,6-dichlorobenzamido)-N-(1-((3-(4-(dimethylamino)but-2-enamido)phenyl)sulfonyl)piperidin-4-yl)-5-methyl-1H-pyrazole-3-carboxamide]",124,125,,> 10000,> 1000,,
"COc1cccc(Cl)c1C(=O)Nc1c[nH]nc1C(=O)NC1CCN(Cc2cccc(NC(=O)/C=C/CN(C)C)c2)CC1 [FMF-05-032-1, (E)-4-(2-chloro-6-methoxybenzamido)-N-(1-(3-(4-(dimethylamino)but-2-enamido)benzyl)piperidin-4-yl)-1H-pyrazole-3-carboxamide]",8.2,36,,115,,8.2,36
"C=CC(=O)Nc1ccc(CN2CC[C@H](NC(=O)c3n[nH]cc3NC(=O)c3c(Cl)cccc3Cl)C2)cc1 [FMF-05-070-1, (S)—N-(1-(4-acrylamidobenzyl)pyrrolidin-3-yl)-4-(2,6-dichlorobenzamido)-1H-pyrazole-3-carboxamide]",,,,31,572,,
"C=CC(=O)Nc1ccc(CN2CC[C@@H](NC(=O)c3n[nH]cc3NC(=O)c3c(Cl)cccc3Cl)C2)cc1 [FMF-05-072-1, (R)—N-(1-(4-acrylamidobenzyl)pyrrolidin-3-yl)-4-(2,6-dichlorobenzamido)-1H-pyrazole-3-carboxamide]",,,,< 1,257,,
"CN(C)C/C=C/C(=O)Nc1ccc(N2CC[C@H](NC(=O)c3n[nH]cc3NC(=O)c3c(Cl)cccc3Cl)C2)cc1 [FMF-05-074-2, (S,E)-4-(2,6-dichlorobenzamido)-N-(1-(4-(4-(dimethylamino)but-2-enamido)phenyl)pyrrolidin-3-yl)-1H-pyrazole-3-carboxamide]",,,,> 10000,116,,
"CN(C)C/C=C/C(=O)Nc1ccc(S(=O)(=O)N2CC[C@H](NC(=O)c3n[nH]cc3NC(=O)c3c(Cl)cccc3Cl)C2)cc1 [FMF-05-084-2, (S,E)-4-(2,6-dichlorobenzamido)-N-(1-((4-(4-(dimethylamino)but-2-enamido)phenyl)sulfonyl)pyrrolidin-3-yl)-1H-pyrazole-3-carboxamide]",,,,> 10000,41,,
"CN(C)C/C=C/C(=O)Nc1cccc(N2CC[C@H](NC(=O)c3n[nH]cc3NC(=O)c3c(Cl)cccc3Cl)C2)c1 [FMF-05-086-2, (S,E)-4-(2,6-dichlorobenzamido)-N-(1-(3-(4-(dimethylamino)but-2-enamido)phenyl)pyrrolidin-3-yl)-1H-pyrazole-3-carboxamide]",,,,> 10000,218,,
"C=CC(=O)Nc1cccc(N2CC[C@@H](NC(=O)c3n[nH]cc3NC(=O)c3c(Cl)cccc3Cl)C2)c1 [FMF-05-087-1, (R)—N-(1-(3-acrylamidophenyl)pyrrolidin-3-yl)-4-(2,6-dichlorobenzamido)-1H-pyrazole-3-carboxamide]",,,22,,1100,,
"CN(C)C/C=C/C(=O)Nc1cccc(S(=O)(=O)N2CCC(NC(=O)c3n[nH]cc3NC(=O)C3CCC(F)(F)CC3)CC2)c1 [FMF-05-116-1, (E)-4-(4,4-difluorocyclohexane-1-carboxamido)-N-(1-((3-(4-(dimethylamino)but-2-enamido)phenyl)sulfonyl)piperidin-4-yl)-1H-pyrazole-3-carboxamide]",140,51.5,,8200,,,

# The next lines start with the values.
"IC50 [1, 5] [nM]","IC50 [2, 6] [nM]",IC50 [3] [nM],"IC50 ([3]; Homo sapiens, HCT-116, 72 h) [nM]",IC50 [4] [nM],IC50 ([1]; read-out: CDK16 IC50) [nM],IC50 ([2]; read-out: CDK2 IC50) [nM],Compound
0.9,0.9,,,,,,"CN(C)C/C=C/C(=O)Nc1cccc(S(=O)(=O)N2CCC(NC(=O)c3n[nH]cc3NC(=O)c3c(Cl)cccc3Cl)CC2)c1 [FMF-03-198-2, (E)-4-(2,6-dichlorobenzamido)-N-(1-((3-(4-(dimethylamino)but-2-enamido)phenyl)sulfonyl)piperidin-4-yl)-1H-pyrazole-3-carboxamide]"
10.2,26,2.1,2.2,,,,CN(C)C/C=C/C(=O)Nc1cccc(CN2CCC(NC(=O)c3n[nH]cc3NC(=O)c3c(Cl)cccc3Cl)CC2)c1 [FMF-03-200-2]
2.3,3,,76,,,,"CCC(=O)Nc1cccc(S(=O)(=O)N2CCC(NC(=O)c3n[nH]cc3NC(=O)c3c(Cl)cccc3Cl)CC2)c1 [FMF-04-060-1, 4-(2,6-dichlorobenzamido)-N-(1-((3-propionamidophenyl)sulfonyl)piperidin-4-yl)-1H-pyrazole-3-carboxamide]"
894,664,,> 10000,> 1000,,,"CN(C)C/C=C/C(=O)Nc1cccc(S(=O)(=O)N2CCC(N(C)C(=O)c3n[nH]cc3NC(=O)c3c(Cl)cccc3Cl)CC2)c1 [FMF-04-086-2, (E)-4-(2,6-dichlorobenzamido)-N-(1-((3-(4-(dimethylamino)but-2-enamido)phenyl)sulfonyl)piperidin-4-yl)-N-methyl-1H-pyrazole-3-carboxamide]"
404,439,,3040,> 1000,,,"CN(C)C/C=C/C(=O)Nc1cccc(S(=O)(=O)N2CCC(NC(=O)c3nscc3NC(=O)c3c(Cl)cccc3Cl)CC2)c1 [FMF-04-089-2, (E)-4-(2,6-dichlorobenzamido)-N-(1-((3-(4-(dimethylamino)but-2-enamido)phenyl)sulfonyl)piperidin-4-yl)isothiazole-3-carboxamide]"
6700,> 10000,,2860,486,,,"CN(C)C/C=C/C(=O)Nc1cccc(S(=O)(=O)N2CCC(NC(=O)c3c(NC(=O)c4c(Cl)cccc4Cl)cnn3C)CC2)c1 [FMF-04-121-1, (E)-4-(2,6-dichlorobenzamido)-N-(1-((3-(4-(dimethylamino)but-2-enamido)phenyl)sulfonyl)piperidin-4-yl)-1-methyl-1H-pyrazole-5-carboxamide]"
29.4,19.6,173,123,,,,"CCC(=O)Nc1cccc(CN2CCC(NC(=O)c3n[nH]cc3NC(=O)c3c(Cl)cccc3Cl)CC2)c1 [FMF-04-172-2, 4-(2,6-dichlorobenzamido)-N-(1-(3-propionamidobenzyl)piperidin-4-yl)-1H-pyrazole-3-carboxamide]"
3.4,3,,172,,,,"CCC(=O)Nc1cccc(S(=O)(=O)N2CCC(NC(=O)c3n[nH]cc3NC(=O)c3c(Cl)cccc3OC)CC2)c1 [FMF-05-033-1, 4-(2-chloro-6-methoxybenzamido)-N-(1-((3-propionamidophenyl)sulfonyl)piperidin-4-yl)-1H-pyrazole-3-carboxamide]"
,,,< 1,282,,,"C=CC(=O)Nc1cccc(CN2CC[C@@H](NC(=O)c3n[nH]cc3NC(=O)c3c(Cl)cccc3Cl)C2)c1 [FMF-05-071-1, (R)—N-(1-(3-acrylamidobenzyl)pyrrolidin-3-yl)-4-(2,6-dichlorobenzamido)-1H-pyrazole-3-carboxamide]"
,,,30,154,,,"C=CC(=O)Nc1ccc(N2CCC(NC(=O)c3n[nH]cc3NC(=O)c3c(Cl)cccc3Cl)CC2)cc1 [FMF-05-073-1, N-(1-(4-acrylamidophenyl)piperidin-4-yl)-4-(2,6-dichlorobenzamido)-1H-pyrazole-3-carboxamide]"
,,,2900,1200,,,"C=CC(=O)Nc1ccc(N2CC[C@H](NC(=O)c3n[nH]cc3NC(=O)c3c(Cl)cccc3Cl)C2)cc1 [FMF-05-074-1, (S)—N-(1-(4-acrylamidophenyl)pyrrolidin-3-yl)-4-(2,6-dichlorobenzamido)-1H-pyrazole-3-carboxamide]"
,,,64,267,,,"C=CC(=O)Nc1ccc(N2CC[C@@H](NC(=O)c3n[nH]cc3NC(=O)c3c(Cl)cccc3Cl)C2)cc1 [FMF-05-075-1, (R)—N-(1-(4-acrylamidophenyl)pyrrolidin-3-yl)-4-(2,6-dichlorobenzamido)-1H-pyrazole-3-carboxamide]"
,,,714,738,,,"CN(C)C/C=C/C(=O)Nc1ccc(N2CC[C@@H](NC(=O)c3n[nH]cc3NC(=O)c3c(Cl)cccc3Cl)C2)cc1 [FMF-05-075-2, (R,E)-4-(2,6-dichlorobenzamido)-N-(1-(4-(4-(dimethylamino)but-2-enamido)phenyl)pyrrolidin-3-yl)-1H-pyrazole-3-carboxamide]"
,,,123,1300,,,"CN(C)C/C=C/C(=O)Nc1cccc(N2CC[C@@H](NC(=O)c3n[nH]cc3NC(=O)c3c(Cl)cccc3Cl)C2)c1 [FMF-05-087-2, (R,E)-4-(2,6-dichlorobenzamido)-N-(1-(3-(4-(dimethylamino)but-2-enamido)phenyl)pyrrolidin-3-yl)-1H-pyrazole-3-carboxamide]"
